Experimental data reported in ChEMBL document CHEMBL3297659, “Discovery, isolation, and structure elucidation of dretamycin” (J Nat Prod, 2014).
Active and inactive are the calls of the source. The calls are words filed in the database; no cut-off is given here.

Experiments:
Aspergillus fumigatus = assay: Antifungal activity against Aspergillus fumigatus; assay type: functional
Saccharomyces cerevisiae = assay: Antifungal activity against Saccharomyces cerevisiae; assay type: functional
Candida = assay: Antifungal activity against Candida spp.; assay type: functional
[1] = Stability in aqueous solution at below pH 7.0; assay type: physicochemical; settings: buffer
Candida albicans [2] = assay: Antifungal activity against Candida albicans expressing DRE-2 heterozygous mutant assessed as clear zone of inhibition by agar diffusion method; assay type: functional, organism-based
Candida albicans [3] = assay: Antifungal activity against Candida albicans expressing DRE-2 heterozygous mutant; assay type: functional, organism-based
Candida albicans [4] = assay: Antifungal activity against wild-type Candida albicans assessed as hazy zone of inhibition by agar diffusion assay; assay type: functional, organism-based
Candida albicans [5] = assay: Growth stimulation in Candida albicans expressing DIP5 heterozygous mutant; assay type: functional, organism-based

Compound `NC(=O)C1=CN(O)C(C(=O)[O-])C1.[K+]` (stereo not drawn) has an MIC (Aspergillus fumigatus) greater than 32 µg/mL and an MIC (Saccharomyces cerevisiae) greater than 32 µg/mL.
For `NC(=O)C1=CN(O)C(C(=O)O)C1` (stereo not drawn) [listing 1 of 2 here], the MIC (Candida) was greater than 8 µg/mL and the Stability [1] was “Unstable”.
For `NC(=O)C1=CN(O)C(C(=O)O)C1` (stereo not drawn) [listing 2 of 2 here], the “growth inhibition (GI)” value (Candida albicans [2]) was “Active”, the Activity (Candida albicans [3]) was “Active” and the “growth inhibition (GI)” value (Candida albicans [4]) was “Active”. For the same compound, the Activity (Candida albicans [5]) was “Active”.
